Data reported in US12600714B2, “Substituted pyrazinecarboxamide compounds for treating diseases related to EGFR mutation” (WIGEN BIOMEDICINE TECHNOLOGY (SHANGHAI) CO., LTD., priority 2020, dated 2026).
pIC50: −log10 of the molar value.

What was measured:
EGFR (L858R/T790M/C797S) = EGFR (L858R/T790M/C797S) (Homo sapiens, UniProt P00533, C797S/L858R/T790M); experiment: HTRF inhibitory activity assay against EGFR (L858R/T790M/C797S) enzyme; assay type: biochemical; conditions: read-out: EGFR (L858R/T790M/C797S) inhibition (%) (0.3 nM compound)
Sequence of EGFR (L858R/T790M/C797S) (P00533 25-1210 T790M/C797S/L858R): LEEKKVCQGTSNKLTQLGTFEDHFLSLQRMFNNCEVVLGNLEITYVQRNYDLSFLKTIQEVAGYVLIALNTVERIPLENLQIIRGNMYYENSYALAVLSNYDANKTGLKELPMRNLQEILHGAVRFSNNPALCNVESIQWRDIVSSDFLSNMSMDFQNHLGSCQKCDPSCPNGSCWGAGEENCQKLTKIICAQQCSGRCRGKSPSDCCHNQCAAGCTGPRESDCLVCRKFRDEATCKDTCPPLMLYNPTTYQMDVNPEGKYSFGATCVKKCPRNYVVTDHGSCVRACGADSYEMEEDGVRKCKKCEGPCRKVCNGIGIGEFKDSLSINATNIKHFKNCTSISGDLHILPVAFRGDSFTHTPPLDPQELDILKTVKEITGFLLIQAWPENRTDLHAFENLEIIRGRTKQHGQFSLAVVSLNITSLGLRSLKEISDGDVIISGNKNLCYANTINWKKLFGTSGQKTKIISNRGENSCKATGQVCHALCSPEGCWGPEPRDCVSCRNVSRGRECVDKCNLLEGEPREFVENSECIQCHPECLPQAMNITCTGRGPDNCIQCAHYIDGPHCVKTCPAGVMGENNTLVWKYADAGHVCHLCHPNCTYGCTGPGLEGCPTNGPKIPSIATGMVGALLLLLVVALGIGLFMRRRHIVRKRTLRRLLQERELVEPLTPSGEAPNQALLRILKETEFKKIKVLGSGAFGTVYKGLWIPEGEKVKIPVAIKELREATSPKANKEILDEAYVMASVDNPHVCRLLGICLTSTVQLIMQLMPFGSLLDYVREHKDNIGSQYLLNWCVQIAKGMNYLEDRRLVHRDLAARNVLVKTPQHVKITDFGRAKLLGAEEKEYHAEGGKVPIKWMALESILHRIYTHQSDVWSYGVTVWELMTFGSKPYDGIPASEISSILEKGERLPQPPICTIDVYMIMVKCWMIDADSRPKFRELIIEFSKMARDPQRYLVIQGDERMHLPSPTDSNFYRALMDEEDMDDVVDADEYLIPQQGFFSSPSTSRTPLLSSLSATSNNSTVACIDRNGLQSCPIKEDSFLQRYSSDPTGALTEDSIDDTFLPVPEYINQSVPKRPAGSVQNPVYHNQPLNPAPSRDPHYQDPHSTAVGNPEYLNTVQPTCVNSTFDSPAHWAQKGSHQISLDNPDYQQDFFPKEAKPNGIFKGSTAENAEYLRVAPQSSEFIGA
Method: (§1) Inhibitory Activity Assay of the Compounds Disclosed Herein Against EGFR (del19/T790M/C797S), EGFR (L858R/T790M/C797S) or EGFR (WT) Enzymes
(§2) The inhibitory effects of the compounds against EGFR (del19/T790M/C797S), EGFR (L858R/T790M/C797S) or EGFR (WT) enzyme activity was determined by using HTRF. The procedures are as follows:
(§3) The WT or mutant EGFR proteins were incubated with a serially diluted compounds at 28° C. for 10 min followed by addition of biotin-labeled general tyrosine kinase (TK) substrate and ATP. The mixture was incubated at room temperature for 40 min for reaction. After the termination of the reaction, an Eu3+-Cryptate-labeled antibody against TK and streptavidin-XL665 were added and the mixture was incubated at room temperature for 60 min. The luminescences at 615 nm and 665 nm were detected and the ratio of 665/615 was calculated to quantify the level of TK substrate phosphorylation. Inhibition % and IC50 of the compounds were calculated relative to the control group.

EGFR (del19/T790M/C797S) = experiment: HTRF inhibitory activity assay against EGFR (del19/T790M/C797S) enzyme; assay type: biochemical
In short: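 Wild-type or mutant EGFR preincubated with serially diluted compound 10 min at 28 °C, then reacted 40 min at room temperature with biotinylated TK substrate and ATP. Phosphorylation detected by HTRF (Eu-cryptate anti-TK antibody, streptavidin-XL665, 60 min), 665/615 nm ratio; % inhibition and IC50 vs control.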

[1] = target: Ba/F3 (EGFR^del19/T790M/C797S) triple-mutant cells (Homo sapiens, UniProt P00533, T790M/C797S, cells depend on it, form not given); experiment: Antiproliferative activity against Ba/F3 (EGFR del19/T790M/C797S) triple-mutant cells, Cell Titer Glow; assay type: cell-based; conditions: three days after addition of compounds; read-out: Antiproliferative activity BaF3(EGFR^del19/T790M/C797S) IC50
Sequence of Ba/F3 (EGFR^del19/T790M/C797S) triple-mutant cells (P00533 with tags, fused parts or gaps DEL746-750/T790M/C797S, form open): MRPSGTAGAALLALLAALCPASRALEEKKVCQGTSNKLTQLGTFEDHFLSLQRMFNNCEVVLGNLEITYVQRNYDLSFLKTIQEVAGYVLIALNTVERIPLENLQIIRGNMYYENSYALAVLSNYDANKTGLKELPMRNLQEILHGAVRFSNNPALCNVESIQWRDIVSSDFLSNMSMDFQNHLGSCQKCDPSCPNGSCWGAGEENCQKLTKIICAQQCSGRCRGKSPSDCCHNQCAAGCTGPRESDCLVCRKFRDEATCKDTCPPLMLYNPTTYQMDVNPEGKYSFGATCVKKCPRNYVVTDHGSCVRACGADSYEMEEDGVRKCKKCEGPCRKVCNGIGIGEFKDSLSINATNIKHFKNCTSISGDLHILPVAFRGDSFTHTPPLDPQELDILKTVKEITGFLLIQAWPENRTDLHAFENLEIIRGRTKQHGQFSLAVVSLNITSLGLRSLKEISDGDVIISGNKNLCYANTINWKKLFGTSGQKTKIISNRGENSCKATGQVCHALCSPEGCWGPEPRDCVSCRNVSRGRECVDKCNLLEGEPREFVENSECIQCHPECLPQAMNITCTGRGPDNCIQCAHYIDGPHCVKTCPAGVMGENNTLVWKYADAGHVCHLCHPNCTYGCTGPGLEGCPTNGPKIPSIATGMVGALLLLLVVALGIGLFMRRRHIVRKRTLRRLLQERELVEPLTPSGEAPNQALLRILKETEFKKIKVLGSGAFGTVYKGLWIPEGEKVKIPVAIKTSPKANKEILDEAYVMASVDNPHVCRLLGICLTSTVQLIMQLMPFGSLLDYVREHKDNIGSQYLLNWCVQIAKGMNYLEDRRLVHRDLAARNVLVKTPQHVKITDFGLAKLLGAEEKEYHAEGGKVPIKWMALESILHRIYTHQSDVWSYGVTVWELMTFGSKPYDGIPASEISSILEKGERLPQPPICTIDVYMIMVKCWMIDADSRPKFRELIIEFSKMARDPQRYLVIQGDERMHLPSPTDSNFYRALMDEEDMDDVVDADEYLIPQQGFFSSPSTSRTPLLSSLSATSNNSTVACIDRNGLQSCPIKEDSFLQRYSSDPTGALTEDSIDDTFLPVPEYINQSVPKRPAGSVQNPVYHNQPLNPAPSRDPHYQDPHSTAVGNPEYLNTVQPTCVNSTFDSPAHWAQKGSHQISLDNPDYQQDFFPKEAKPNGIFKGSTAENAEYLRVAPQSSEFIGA
Method: (§4) Antiproliferative Activity of the Compounds Disclosed Herein Against Ba/F3 (EGFR^del19/T790M/C797S) Triple-Mutant Cells and A431 (EGFR WT) Cells
(§5) • 3000 Ba/F3 cells carrying EGFR (del19/T790M/C797S) or 2000 A431 cells were seeded in a 384-well plate. After one day, serially diluted compounds were added (up to 500 nM for Ba/F3 cells and up to 10 μM for A431 cells). Three days after the addition of the compounds, Cell Titer Glow was added to evaluate cell growth and the percentage cell growth inhibition by the compounds and the IC50 values were calculated.

A431 (EGFR WT) cells = experiment: Antiproliferative activity against A431 (EGFR WT) cells, Cell Titer Glow; assay type: cell-based; conditions: Homo sapiens, A-431, 72 h; three days after addition of compounds; read-out: Antiproliferative activity A431 wild-type (WT) IC50
Method: as §4, §5

EGFR (WT) = EGFR (WT) (Homo sapiens, UniProt P00533); experiment: HTRF inhibitory activity assay against EGFR (WT) enzyme; assay type: biochemical
Sequence of EGFR (WT) (P00533 25-1210): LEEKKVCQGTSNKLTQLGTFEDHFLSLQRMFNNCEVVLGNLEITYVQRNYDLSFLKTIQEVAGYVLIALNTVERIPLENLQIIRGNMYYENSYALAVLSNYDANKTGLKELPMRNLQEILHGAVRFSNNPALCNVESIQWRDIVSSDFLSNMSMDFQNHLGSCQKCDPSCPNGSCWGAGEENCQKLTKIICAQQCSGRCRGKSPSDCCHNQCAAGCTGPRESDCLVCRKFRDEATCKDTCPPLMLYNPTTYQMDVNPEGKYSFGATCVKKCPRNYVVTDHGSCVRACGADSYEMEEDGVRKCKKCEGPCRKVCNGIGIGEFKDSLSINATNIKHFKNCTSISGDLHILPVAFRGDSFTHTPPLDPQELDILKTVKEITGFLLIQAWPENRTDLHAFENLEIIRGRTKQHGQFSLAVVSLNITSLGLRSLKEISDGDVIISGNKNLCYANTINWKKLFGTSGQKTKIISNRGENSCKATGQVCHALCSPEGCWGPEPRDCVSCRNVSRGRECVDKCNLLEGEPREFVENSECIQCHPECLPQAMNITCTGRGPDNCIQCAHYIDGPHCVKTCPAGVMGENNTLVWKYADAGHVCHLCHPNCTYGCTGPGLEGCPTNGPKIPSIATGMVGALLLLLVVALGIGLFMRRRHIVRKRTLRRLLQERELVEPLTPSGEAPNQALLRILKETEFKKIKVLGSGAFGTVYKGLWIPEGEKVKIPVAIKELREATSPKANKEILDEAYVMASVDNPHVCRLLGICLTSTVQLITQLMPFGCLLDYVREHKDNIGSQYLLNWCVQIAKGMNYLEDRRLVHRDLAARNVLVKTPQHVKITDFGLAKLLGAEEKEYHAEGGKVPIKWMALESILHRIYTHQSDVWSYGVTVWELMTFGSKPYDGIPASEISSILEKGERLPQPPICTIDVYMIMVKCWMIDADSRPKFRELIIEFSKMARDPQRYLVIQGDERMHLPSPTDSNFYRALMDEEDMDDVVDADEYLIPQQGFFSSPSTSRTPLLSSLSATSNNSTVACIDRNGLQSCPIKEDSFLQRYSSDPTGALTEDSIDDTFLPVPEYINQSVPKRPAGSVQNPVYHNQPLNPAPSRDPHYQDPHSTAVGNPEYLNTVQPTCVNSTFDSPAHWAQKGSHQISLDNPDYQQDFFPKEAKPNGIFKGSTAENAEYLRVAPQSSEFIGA
Method: as §1, §2, §3

inhibition at 0.0003 µM (EGFR (L858R/T790M/C797S)) [%]	GI50 [1] [nM]	pIC50 (A431 (EGFR WT) cells)	pIC50 (EGFR (WT))	Structure (SMILES)	EGFR (del19/T790M/C797S) inhibition (%) (0.3 nM compound) (EGFR (del19/T790M/C797S))
20 to 50	233	6.12	–	COc1ccncc1-c1nc(C(N)=O)c(Nc2ccc(N3CCC(N4CCN(C)CC4)CC3)cc2)nc1NC1CCOCC1 [compound 83]	++ (++ indicates an inhibition from 20% to 50%)
–	48	6.28	< 6.52	CN1CCN(C2CCN(c3ccc(Nc4nc(NCC(C)(C)O)c(-c5ccccc5)nc4C(N)=O)cc3)CC2)CC1 [compound 21]	++ (++ indicates an inhibition from 20% to 50%)
–	197	5.89	< 6.52	CNc1nc(Nc2ccc(N3CCC(N4CCN(C)CC4)CC3)cc2)c(C(N)=O)nc1-c1ccccc1 [compound 13]	+ (+ indicates an inhibition less than or equal to 20%)
> 50	27	6.01	–	Cc1cc(Nc2nc(NC3CCOCC3)c(-c3ccncc3)nc2C(N)=O)ccc1N1CCC(N2CCN(C)CC2)CC1 [compound 114]	++ (++ indicates an inhibition from 20% to 50%)
> 50	–	–	–	CN1CCN(C2CCN(c3ccc(Nc4nc(NC5CCC5)c(-c5cccc6[nH]ccc56)nc4C(N)=O)cc3)CC2)CC1 [compound 523]	+++ (+++ indicates an inhibition greater than 50%.)
≤ 20	–	–	–	CN1CCN(C2CCN(c3ccc(Nc4nc(NC5CCOCC5)c(-c5ccco5)nc4C(N)=O)cc3)CC2)CC1 [compound 69]	+ (+ indicates an inhibition less than or equal to 20%)
> 50	–	–	–	CN1CCN(C2CCN(c3ccc(Nc4nc(NC5CC6(COC6)C5)c(-c5cccc6[nH]ccc56)nc4C(N)=O)cc3F)CC2)CC1 [compound 536]	+++ (+++ indicates an inhibition greater than 50%.)
> 50	–	–	–	CN1CCN(C2CCN(c3ccc(Nc4nc(NC5CCOCC5)c(-c5cccc6[nH]ccc56)nc4C(N)=O)cc3F)CC2)CC1 [compound 519]	+++ (+++ indicates an inhibition greater than 50%.)
–	72	5.85	< 6.52	CN(C)C1CCN(c2ccc(Nc3nc(NC4CCOCC4)c(-c4ccccc4)nc3C(N)=O)cc2)CC1 [compound 59]	+ (+ indicates an inhibition less than or equal to 20%)
≤ 20	248	5.59	–	CN1CCN(C2CCN(c3ccc(Nc4nc(NC5CS(=O)(=O)C5)c(-c5ccccc5)nc4C(N)=O)cc3)CC2)CC1 [compound 126]	+ (+ indicates an inhibition less than or equal to 20%)
≤ 20	–	–	–	CN1CCN(C2CCN(c3ccc(Nc4nc(NC5CCOCC5)c(-c5cccs5)nc4C(N)=O)cc3)CC2)CC1 [compound 94]	++ (++ indicates an inhibition from 20% to 50%)
> 50	–	–	–	CN1CCN(C2CCN(c3ccc(Nc4nc(NC5CCC5)c(-c5cccc6[nH]ccc56)nc4C(N)=O)cc3F)CC2)CC1 [compound 532]	+++ (+++ indicates an inhibition greater than 50%.)
≤ 20	–	–	–	CN1CCN(C2CCN(c3ccc(Nc4nc(NC5CCOCC5)c(-c5cccc(F)c5)nc4C(N)=O)cc3)CC2)CC1 [compound 60]	++ (++ indicates an inhibition from 20% to 50%)
–	–	–	< 6.52	CN1CCN(C2CCN(c3ccc(Nc4nc(NC5CCOCC5)c(-c5ccccc5C#N)nc4C(N)=O)cc3)CC2)CC1 [compound 52]	+++ (+++ indicates an inhibition greater than 50%.)
20 to 50	–	–	–	CN1CCN(C2CCN(c3ccc(Nc4nc(N[C@@H]5CC[C@@H](O)C5)c(-c5ccccc5)nc4C(N)=O)cc3)CC2)CC1 [compound 137, 5-(((1R,3R)-3-hydroxycyclopentyl)amino)-3-((4-(4-(4-methylpiperazin-1-yl)piperidin-1-yl)phenyl)amino)-6-phenylpyrazine-2-carboxamide]	++ (++ indicates an inhibition from 20% to 50%)
–	–	–	< 6.52	CN1CCN(C2CCN(c3ccc(Nc4nc(N(C)C)c(-c5ccccc5)nc4C(N)=O)cc3)CC2)CC1 [compound 10]	++ (++ indicates an inhibition from 20% to 50%)
≤ 20	54	6.32	–	COC1CCC(Nc2nc(Nc3ccc(N4CCC(N5CCN(C)CC5)CC4)cc3)c(C(N)=O)nc2-c2ccccc2)C1 (stereo not drawn) [compound 35]	++ (++ indicates an inhibition from 20% to 50%)
–	–	–	< 7.00	CN1CCN(C2CCN(c3ccc(Nc4nc(O[C@H]5CCN(C)C5)c(-c5ccccc5)nc4C(N)=O)cc3)CC2)CC1 [compound 2]	+ (+ indicates an inhibition less than or equal to 20%)
20 to 50	99	6.19	–	CO[C@H]1C[C@H](Nc2nc(Nc3ccc(N4CCC(N5CCN(C)CC5)CC4)cc3)c(C(N)=O)nc2-c2ccccc2)C1 [compound 125]	++ (++ indicates an inhibition from 20% to 50%)
> 50	–	–	–	CN1CCN(C2CCN(c3ccc(Nc4nc(NC5CCCC5)c(-c5cccc6[nH]ccc56)nc4C(N)=O)cc3)CC2)CC1 [compound 524]	+++ (+++ indicates an inhibition greater than 50%.)
≤ 20	> 500	–	–	CCc1nc(C(N)=O)c(Nc2ccc(N3CCC(N4CCN(C)CC4)CC3)c(OC)c2)nc1NC1CCOCC1 [Gilteritinib, gilteritinib, reference compound]	–
20 to 50	48	5.74	–	CN1CCN(C2CCN(c3ccc(Nc4nc(NC5CCOCC5)c(-c5ccccn5)nc4C(N)=O)cc3)CC2)CC1 [compound 38]	–
> 50	13	7.15	–	CN1CCN(C2CCN(c3ccc(Nc4nc(NC5COC5)c(-c5cccc6[nH]ccc56)nc4C(N)=O)cc3)CC2)CC1 [compound 594]	+++ (+++ indicates an inhibition greater than 50%.)
> 50	70	6.23	–	CN1CCC(c2ccc(Nc3nc(NC4CCOCC4)c(-c4ccncc4)nc3C(N)=O)cc2)CC1 [compound 121]	+++ (+++ indicates an inhibition greater than 50%.)
> 50	–	–	–	CN1CCN(C2CCN(c3ccc(Nc4nc(N[C@H]5CC[C@H](O)CC5)c(-c5cccc6[nH]ccc56)nc4C(N)=O)cc3F)CC2)CC1 [compound 535]	+++ (+++ indicates an inhibition greater than 50%.)
≤ 20	36	6.02	–	CN1CCN(C2CCN(c3ccc(Nc4nc(N[C@H]5CC[C@H](O)CC5)c(-c5ccccc5)nc4C(N)=O)cc3)CC2)CC1 [compound 23]	++ (++ indicates an inhibition from 20% to 50%)
